In patent publication US20190110476A1, “NOVEL ISOTHIAZOLAMIDES, PROCESSES FOR THEIR PREPARATION AND THEIR USE AS FUNGICIDES” (priority 2014, published 2019):
Marks after values point to notes of the source that are not given here.

Test: Measurement of LogP values by HPLC on reversed phase columns (EEC directive 79/831 Annex V.A8)
Type: physicochemical
Experimental: The abbreviations and numerations of the substituent positions used in the context of the present invention and in the following Tables are explained in detail in the section Examples hereinafter. Also, the LogP values indicated in the following Tables are explained in detail in the section Examples hereinafter. In case LogP values for different diastereoisomers of a specific compound are […], said LogP values are […] by a “+”. […] Measurement of LogP values was performed according to EEC directive 79/831 Annex V.A8 by HPLC (High Performance Liquid Chromatography) on reversed phase columns with the following methods: […] Lambda-max-values were determined using UV-spectra from 200 nm to 400 nm and the peak values of the chromatographic signals

| LogP | LogP [a] | LogP [b] | LogP [c] | SMILES |
| --- | --- | --- | --- | --- |
| 2.84[a] |  |  |  | Nc1cc(C(=O)N(Cc2cc(Cl)ccc2Br)C2CC2)sn1 [I-1001] |
| 4.33[a] |  |  |  | COc1ccc(CNc2nsc(C(=O)NCC3CCCC(C(F)(F)F)C3)c2Cl)cc1 (centres unmarked) [I-106] |
| 2.90[a] |  |  |  | Nc1cc(C(=O)N(Cc2ccc(Cl)cc2Cl)C2CC2)sn1 [I-967] |
| 2.68[a] |  |  |  | Nc1nsc(C(=O)NCC2CCC(C(F)(F)F)CC2)c1Br (centres unmarked) [I-840] |
| 2.96[a] |  |  |  | Nc1nsc(C(=O)NCC2CCCCC2)c1-c1ccc(F)cc1 [I-332] |
|  | 3.22 | 3.16 |  | COc1ccc(CNc2nsc(C(=O)N3CCCCC3)c2Cl)cc1 [II-108] |
| 2.73[a] |  |  |  | C[C@H]1CCCC[C@H]1CNC(=O)c1snc(N)c1I (relative stereo) [I-1540] |
| 1.82[a] |  |  |  | COc1ccc(CNc2nsc(C(=O)NC(Cn3ccnc3)C(C)(C)C)c2Cl)cc1 (centres unmarked) [I-1324] |
| 1.36[a] |  |  |  | COc1ccc(CNc2nsc(C(=O)NCCCn3ccnc3)c2Cl)cc1 [I-1244] |
| 3.44[a] |  |  |  | O=C(NCc1ccc(Cl)cc1)c1snc(NCC(F)(F)F)c1Cl [I-578] |
| 1.35[a] |  |  |  | COc1ccc(CNc2nsc(C(=O)NCc3cncn3C)c2Cl)cc1 [I-1213] |
| 5.48[a] |  |  |  | COc1ccc(CNc2nsc(C(=O)NCC3C(C)CCCC3(C)C)c2Cl)cc1 (centres unmarked) [I-076] |
|  | 4.40^[a] |  |  | COC(=O)c1snc(N=C(c2ccccc2)c2ccccc2)c1Cl [E-VII-006] |
| 2.40[a] |  |  |  | Nc1nsc(C(=O)NCc2ccc(Cl)cc2F)c1Cl [I-181] |
| 5.35[a] |  |  |  | CC(C)(NC(=O)c1snc(NCc2ccccc2)c1Cl)C1CCCCC1 [I-048] |
| 2.41[a] |  |  |  | Nc1nsc(C(=O)NCCc2ccccc2Cl)c1Cl [I-895] |
| 5.39[a] |  |  |  | COc1ccc(CNc2nsc(C(=O)N(Cc3ccc(Cl)cc3Cl)C(C)C)c2Cl)cc1 [I-944] |
| 0.83[a] |  |  |  | Cc1ccnc(CNC(=O)c2snc(N)c2Cl)n1 [I-039] |
| 2.09[a] |  |  |  | CCOc1c(N)nsc1C(=O)NCc1c(F)cc(F)cc1F [I-724] |
| 2.83[a] |  |  |  | CCOc1c(N)nsc1C(=O)NCC1CCCCCC1 [I-728] |
| 2.82[a] |  |  |  | CCc1c(CNC(=O)c2snc(NCc3ccc(OC)cc3)c2Cl)cnn1CC [I-1333] |
| 4.71[a] |  |  |  | COc1ccc(CNc2nsc(C(=O)N(Cc3ccccc3C(C)C)C3CC3)c2Cl)cc1 [I-871] |

| LogP | LogP [a] | LogP [b] | LogP [c] | SMILES |
| --- | --- | --- | --- | --- |
| 1.42[a] |  |  |  | COc1ccc(CNC(=O)c2snc(N)c2C)cc1 [I-049] |
| 3.15[a] |  |  |  | Cc1ccc(C(C)C)c(CNC(=O)c2snc(N)c2Cl)c1 [I-415] |
| 6.35[a] |  |  |  | Cc1ccc(NC(=O)c2snc(N(Cc3ccccc3)Cc3ccccc3)c2Br)cc1Cl [I-951] |
| 2.82[a] |  |  |  | COc1ccc(CNc2nsc(C(=O)NC(C)c3nccs3)c2Cl)cc1 (centres unmarked) [I-1317] |
| 3.85[a] |  |  |  | COc1ccc(CNc2nsc(C(=O)Nc3cccc(F)c3)c2Cl)cc1 [I-861] |
|  | 2.10^[a] |  |  | CCCS(CC)=Nc1nsc(C(=O)NCc2cc(F)c(F)cc2F)c1F (centres unmarked) [II-103] |
| 3.52[a] |  |  |  | CC(C)(C)OC(=O)Nc1nsc(C(=O)NCC2CCCCC2Cl)c1Cl (centres unmarked) [I-1578] |
|  | 2.48^[a] |  |  | CCOC(=O)c1snc(NC(=O)C(C)(C)C)c1Cl [E-VII-018] |
| 2.12[a] |  |  |  | Nc1nsc(C(=O)NCC2CCCCC2)c1O [I-797] |
| 1.97[a] |  |  |  | Nc1nsc(C(=O)NCC2CCCCC2F)c1Cl (centres unmarked) [I-1306] |
|  |  |  | 1.90^[c] | CCCS(CC)=Nc1nsc(C(=O)NCC2CCCCC2)c1Cl (centres unmarked) [II-086] |
| 1.91[a] |  |  |  | COc1ccc(CNC(=O)c2snc(N)c2Cl)cc1F [I-240] |
| 4.49[a] |  |  |  | CCC1CCCCC1NC(=O)c1snc(NCc2ccc(OC)cc2)c1Cl (centres unmarked) [I-1215] |
| 1.27[a] |  |  |  | Nc1cc(C(=O)NCc2ccc(F)cc2)sn1 [I-029] |
| 4.29[a] |  |  |  | COc1ccc(CNc2nsc(C(=O)NCc3ncc(C(F)(F)F)cc3Cl)c2Cl)cc1 [I-268] |
| 4.95[a] |  |  |  | COc1ccc(CNc2nsc(C(=O)NCC3CCCCC3(C)C)c2Cl)cc1 (centres unmarked) [I-056] |
| 2.78[a] |  |  |  | COc1ccc(CNc2nsc(C(=O)NCc3ccnc(OC)c3)c2Cl)cc1 [I-1204] |
| 1.75[a] |  |  |  | Nc1cc(C(=O)NCc2ccc(Cl)cc2)sn1 [I-028] |
| 3.90[a] |  |  |  | CCC(c1ccc(Cl)cc1Cl)N(C(=O)c1snc(N)c1Cl)C1CC1 (centres unmarked) [I-954] |
| 4.30[a] |  |  |  | COc1ccc(CNc2nsc(C(=O)NC3CC(C(F)(F)F)CC(C(F)(F)F)C3)c2Cl)cc1 (centres unmarked) [I-1218] |
| 4.82[a] |  |  |  | O=C(NC1CCCC2CCCCC21)c1snc(NCC(F)(F)F)c1NCC(F)(F)F (centres unmarked) [I-631] |
| 2.66[a] |  |  |  | Nc1nsc(C(=O)NC2CCCCC2)c1-c1ccc(F)cc1 [I-334] |

| SMILES | LogP | LogP [a] | LogP [b] | LogP [c] |
| --- | --- | --- | --- | --- |
| CS(C)=Nc1nsc(C(=O)NCC2CCCO2)c1F (centres unmarked) [II-070] |  | 0.44^[a] |  |  |
| CS(Cc1ccccc1Cl)=Nc1nsc(C(=O)NCC2CCCCC2)c1Cl (centres unmarked) [II-085] |  | 3.61^[a] |  |  |
